System: Sulfate-Reducing Bacteria
Assay: Qualitative test kit specific to sulfate-reducing bacteria, produced water samples
Assay type: cell-based
Details: produced water from the Piceance basin, 250 ppm glutaraldehyde, "Glut+butenolide" with a further 125 ppm butenolide
Method: Produced water samples from the Piceancebasin were tested for bacterial content in a simple qualitative test kit manufactured by “Droycon Boiconcepts Inc., specific to Sulfate-Reducing Bacteria. Three kits were used, labeled “No treatment”, “Glutaraldehyde”, and “Glut+butenolide”. The latter two bottles were treated with 250 ppm glutaraldehyde.
FIG. 1 is a photograph series that compares the experimental results of testing the effectiveness of biocide compositions.

O=CCCCC=O [Glutaraldehyde, glutaraldehyde]
appearance of the test bottle (black residues characteristic of the presence of SRBs) (after 14 days): clear and pale yellow | appearance of the test bottle (re-growth of SRBs, fine black residues) (after 17 days): begun to show re-growth of SRBs

From US20130225675A1, “BACTERIAL CONTROL OF WATER BASED FLUIDS DURING […] AND […] TIME IN THE SU[…]” (SCHLUMBERGER TECHNOLOGY CORPORATION, priority 2010, published 2013)
